Assay results reported in patent US20260183301A1, “TREATING DISEASES AND DISORDERS WITH IRAK4-MODIFYING COMPOUNDS” (Curis, Inc., priority 2022, published 2026).
“Also recorded” adds a separate entry of the source.

Tests used:
AML or high risk MDS = assay: Phase 1 study in AML or high risk MDS: marrow response; format: in vivo, human
Procedure: This study will be conducted in 2 parts: an initial dose escalation and dose expansion phase. […] Three patients with AML or MDS will be enrolled at the designated dose. If none of the first 3 patients experience a DLT during the first cycle, patients may be enrolled into the next higher dose level of 300 mg bid until a safe and effective RP2D is established.
This study is expected to enroll approximately 18 patients to establish the initial RP2D.
The major study inclusion and exclusion criteria are as follows: Relapsed or refractory AML (primary or secondary, including treatment-related) after at least one standard treatment (including chemotherapy, re-induction therapy or stem cell transplantation) based on the assessment of the investigator or high/very high risk relapsed/refractory MDS (IPSS—R criteria), following at least 6 cycles of hypomethylating agents [HMA] or evidence of early progression.

NF-kappaB p-p50 = assay: IHC of NF-kappaB p-p50 in paired tumor biopsies of NHL patients before and after treatment; format: in vivo, human; conditions: paired tumor biopsy samples (3 cases) before and after treatment
Procedure: Formalin-fixed, paraffin-embedded sections of human tonsil and lymphoma were used. Tissue sections (5 μm) were deparaffinized, and antigen retrieval was carried out at 90-100° C. in citrate buffer for 10-40 min. The sections were incubated in 1% […] for 10 minutes to quench endogenous tissue peroxidase. Tissue sections were then incubated with primary NF-κB p-p50-specific antibody (at 1:300 dilution) for approximately 16 h at 4° C. The primary NF-κB p-p50-specific antibody used NF-κB p-p50 (S337), sc-271908 from Santa Cruz Biotechnology.
The slides were stained using a standard EnVision+System-HRP kit (DAKO, Carpinteria, CA) according to the manufacture's protocol. Immunohistochemical reactions were developed with diaminobenzidine as the chromogenic peroxidase substrate, and slides were counterstained with hematoxylin. Negative control samples included replacement of the primary antibody with nonimmune IgG1 (Dako).

Cc1cc(-c2nc(C(=O)Nc3cc4oc(N5CCOCC5)nc4nc3N3CC[C@@H](O)C3)co2)ccn1 [Compound 1, emavusertib]
marrow blasts (AML or high risk MDS; all initial patients, cycle 1): marrow blast reduction
marrow complete responses (AML or high risk MDS; initial patients, cycle 1): several marrow complete responses
clinical activity (AML or high risk MDS; relapsed/refractory AML and high-risk MDS, ongoing Phase 1 study): clinical activity
NF-kappaB p-p50 expression in tumors (NF-kappaB p-p50): significant downregulation; also recorded: inhibited
